Assay [1] has as its target Histone-lysine N-methyltransferase EZH2 (Homo sapiens, UniProt Q15910). In words: Inhibition of EZH2 (unknown origin).
Assay [2] in a line: Inhibition of PI3K (unknown origin). Details: species or system Homo sapiens.

Histone-lysine N-methyltransferase EZH2, sequence (Q15910 whole entry): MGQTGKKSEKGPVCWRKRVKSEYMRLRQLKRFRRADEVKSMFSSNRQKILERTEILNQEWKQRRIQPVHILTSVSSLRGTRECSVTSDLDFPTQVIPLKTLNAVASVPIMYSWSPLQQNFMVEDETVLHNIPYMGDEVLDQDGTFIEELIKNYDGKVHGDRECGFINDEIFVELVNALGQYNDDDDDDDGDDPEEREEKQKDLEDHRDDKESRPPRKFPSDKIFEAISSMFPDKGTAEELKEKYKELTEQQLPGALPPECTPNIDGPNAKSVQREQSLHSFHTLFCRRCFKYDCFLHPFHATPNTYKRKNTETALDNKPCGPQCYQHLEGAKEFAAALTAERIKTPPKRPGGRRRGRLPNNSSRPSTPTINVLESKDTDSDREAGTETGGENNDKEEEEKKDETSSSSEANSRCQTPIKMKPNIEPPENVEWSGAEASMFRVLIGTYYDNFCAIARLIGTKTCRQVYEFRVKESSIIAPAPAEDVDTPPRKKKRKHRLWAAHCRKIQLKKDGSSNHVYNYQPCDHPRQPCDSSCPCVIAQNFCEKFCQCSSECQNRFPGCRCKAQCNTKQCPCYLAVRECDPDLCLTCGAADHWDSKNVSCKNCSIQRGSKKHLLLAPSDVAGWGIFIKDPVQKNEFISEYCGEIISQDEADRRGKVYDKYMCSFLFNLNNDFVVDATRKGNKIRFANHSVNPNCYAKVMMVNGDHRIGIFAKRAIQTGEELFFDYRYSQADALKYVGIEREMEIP

In general, EC50 refers to the concentration at which the effect is half-maximal. A low value points to an effect from little substance. In assay [1], `Cc1cc(C)c(CNC(=O)c2cc(C)n(C3CCCCC3)c2C)c(=O)[nH]1` showed an EC50 of 3.4 µM.

The term Kd denotes the concentration at which binding is half-saturated. A high value points to lower affinity. As for `CC(C)Oc1ccc(-c2nn([C@@H](C)c3oc4ccc(F)cc4c(=O)c3-c3cccc(F)c3)c3ncnc(N)c23)cc1F` [UMBRALISIB], the Kd in assay [2] stood at 0.0062 µM.

For the origin of these results see ChEMBL document CHEMBL5230141, “Focused Libraries for Epigenetic Drug Discovery: The Importance of Isosteres” (J Med Chem, 2021).
